# Article PMC12667295, “A surrogate barrier model for high-throughput blood-brain barrier permeability prediction: integrating LLC-PK1-MOCK/MDR1 Cells and lysosomal trapping correction” (Drug Delivery, 2025)
# Where two headings read alike, the source gives them in different places.
# Columns and labels:
# [1] = cited from earlier work
# [2] = Bidirectional transport across LLC-PK1 MOCK monolayer (Transwell); conditions: pig; for recovery at 2 h, 2 µM: LLC-PK1 MOCK cell monolayer (Transwell);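 on all read-outs here: compound quantified by LC-MS/MS in donor and receiver wells, efflux ratio as B-A over A-B Papp, recovery relative to initial donor amount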
# Method: (§3) Cells were passaged at 80−90% confluence (every 2−3 days) using trypsin-EDTA solution. […] The culture medium was replaced every other day, including 200 µL culture medium in the apical and 850 µL cell culture medium in the basolateral side. LLC-PK1 MOCK cells were used at passages of 3−30. LLC-PK1-MDR1 cells were cultured and passaged in the same manner as LLC-PK1 cells except at the density of 1 × 10^4 cells per well. LLC-PK1-MDR1 cells were used at passages of 3−25. For LLC-PK1 MOCK cells and LLC-PK1-MDR1 cells, the experiments were performed on the 4th and 7th day after seeding.
# (§4) Samples were collected from the donor well at the start of the incubation (50 µL) as C0, and from the donor and receiver wells at the end of the incubation (50 µL). All samples were stored at - 40 °C for LC-MS/MS analysis.
# (§5) Bidirectional transport experiments. […] The transwell experiments were conducted following above-mentioned procedure. […] When the recovery rate of the tested drug is below 80%, the possibility of intracellular accumulation should be considered. The polycarbonate (PC) membrane where cells are grown should be carefully peeled off from the cell culture medium and placed in 100 µL of HBSS buffer solution. […] The process was carried out on ice to prevent heat-induced degradation, applying a power in the range of 300 W for a total duration of 20 minutes. Thereafter, a quantitative analysis of the intracellular drug was conducted, and the drug recovery rate was recalculated based on this analysis.
# (§6) The apparent permeability coefficient (Papp, cm/s) was calculated for each transport direction, A-B and B-A, using the following equation: Papp=dQ/dt×1/A×C0 where dQ/dt is the permeation rate (µmol/s), A is the surface area of the insert (0.33 cm^2, Corning), and C0 is the initial donor concentration (µM).
# (§7) The efflux ratio (ER) is calculated as the ratio of Papp (B-A)/Papp (A-B). Recovery=TRcumrf+Cdf×VD/Cdi×VD×100% Where TRcumrf is the cumulative transported mass in the receiver chamber at the end of the incubation (nmol), Cdf is the concentration of the drug in the donor chamber at the end of the incubation (μM), VD is the volume of the donor chamber (mL), and Cdi is the initial concentration of the drug in the donor chamber (μM).
# (§8) The method of the bidirectional transport experiment was the same as before.
# P-gp (human MDR1) [3] = test: in vitro; conditions: pig
# Method: (§9) The overexpression and functional activity of P-glycoprotein (P-gp) in the LLC-PK1-MDR1 cells were rigorously validated through multiple methods.
# as §3
# (§10) Monitoring permeability of positive control drugs. […] Samples were collected from the donor well at the start of the incubation (50 µL) as C0, and from the donor and receiver wells at the end of the incubation (50 µL). All samples were stored at - 40 °C for LC-MS/MS analysis.
# as §5, §6, §7, §8
# in vivo = conditions: SD, rat, iv, 1 mg/kg
# Excerpt: In vivo unbound brain distribution data (Kp,uu,Brain) for 16 drugs and total brain distribution data (Kp,Brain) for 16 drugs was acquired from literature. […] For each tested compound, fifteen rats were randomly divided into five groups of three rats each. […] The time of execution of the rats by CO2 inhalation after administration was optimized according to the in vivo elimination rate to achieve five concentrations of different time points. After the rats were euthanized, cardiac puncture was performed immediately to remove as much whole blood as possible (~7 ml) from the systemic circulation (Quantitatively aliquot 0.2 ml of whole blood for the determination of drug concentration in plasma). Afterwards, the brain tissue was collected immediately and rinsed repeatedly with ice-cold saline 3 times. Then, the surface saline was blotted dry with clean filter paper to remove as much residual drug in the blood vessels as possible. Plasma samples were prepared by centrifugation of the blood samples at 2,500 g for 10 minutes at 4 °C. All brain samples were homogenized by adding 4-fold volume water. All samples were stored at -40 °C before LC-MS/MS analysis. […] The brain tissue partition coefficient (Kp, brain) and brain-to-plasma unbound drug partition ratio (Kp,uu, brain) are calculated according to the following formulas, respectively: Kp,brain=AUC(0−∞,brain)/AUC(0−∞,plasma)Kp,uu,brain=Kp,brain×(fu,tissue/fu,plasma)
# Free brain-to-plasma distribution coefficients (Kp,uu,brain) of 41 drugs. Brain distribution coefficients (Kp,uu,brain) were calculated for 41 drugs. […] Plasma and brain concentration-time profiles were generated, and AUC(0-t) values for both matrices were calculated using WinNolin 8.1. Kp,brain was derived as the ratio of brain-to-plasma AUC(0-t).
# Kp,uu,brain values were computed by normalizing Kp,brain to unbound fractions (fu,plasma and fu,brain).
# in vitro [4] = test: in vitro
# Method: (§1) Stocks (10 mM) of test compounds were diluted to 5 μM with plasma or tissue homogenate and dialyzed at 37 °C for 6 hours in a shaking incubator. After incubation aliquots of both plasma or tissue homogenate and buffer from the device were taken and added to equal volumes of blank buffer and plasma or tissue homogenate respectively. Samples were then diluted in acetonitrile containing an internal standard prior to centrifugation and analysis of the supernatants by LC-MS/MS. The fu, plasma was calculated using Equation 1:(1) fu,plasma=Concbuffer chamber/Concsample chamber
# Rat fraction unbound in brain (fu, brain) was determined as the ratio of concentration in buffer to that in brain.
# (§2) Unbound fractions of test drugs in plasma (fu,plasma) and brain tissue (fu,brain). For compounds with existing rat plasma or brain protein-binding data from literature or internal studies, values were directly adopted.
# P-gp (human MDR1) [5] = test: Bidirectional transport across LLC-PK1-MDR1 monolayer stably expressing human MDR1 (P-gp) (Transwell); conditions: pig;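 further: 2 h incubation at 37 °C, receiver HBSS with 10 mM Hepes plus 1% BSA, LC-MS/MS of donor and receiver, recovery as receiver plus donor amount over initial donor amount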
# Method: as §9, §3, §10, §5, §6, §7, §8
# in vitro [6] = conditions: rat; for fraction unbound at 6 h, 5 µM: plasma
# Method: as §1, §2
# in vitro [7] = conditions: pig; for recovery at 2 h, 2 µM: pH 7.4
# Method: as §3, §4, §5, §6, §7, §8
# [8] = footnote b, species not stated; ref https://go.drugbank.com; cited from earlier work
# [9] = LLC-PK1, pH 7.4, Papp A-B, LLC-PK1 MOCK, 2 µM, 2 h, mean ± s, n = 3, BLQ = below 2 nM
# [10] = LLC-PK1 MOCK cell monolayer (Transwell)
SMILES,"Kp, Brain ([1]; ref Fridén [2009])","Kp,uu,Brian ([1]; ref Fridén [2009])","Papp B→A at 2 h, 2 µM ([2]; LLC-PK1, pH 7.4)","Papp A→B at 2 h, 2 µM [2, 9]","recovery at 2 h, 2 µM (P-gp (human MDR1) [3]; LLC-PK1, pH 7.4)",Kp uu (in vivo),"Kp (in vivo; Kp, Brain)","fraction unbound at 6 h, 5 µM (in vitro [4]; rat, brain homogenate)","Papp A→B at 2 h, 2 µM (P-gp (human MDR1) [5]; LLC-PK1, pH 7.4)","Papp B→A at 2 h, 2 µM (P-gp (human MDR1) [5]; LLC-PK1, pH 7.4)","recovery at 2 h, 2 µM (in vitro [7]; [10])","efflux ratio at 2 h, 2 µM ([2]; LLC-PK1, pH 7.4)","recovery at 2 h, 2 µM (in vitro [7])","efflux ratio at 2 h, 2 µM (P-gp (human MDR1) [5]; LLC-PK1, pH 7.4)",also measured
Nc1nnc(-c2cccc(Cl)c2Cl)c(N)n1 [Lamotrigine],2.02,0.880,–,–,–,–,–,–,–,–,–,–,–,–,–
Cc1cc(=O)n(-c2ccccc2)n1C [Antipyrine],–,–,23.6 ± 1.43 ×10⁻⁶ cm/s,31.4 ± 3.13 ×10⁻⁶ cm/s,113 ± 1.41%,0.72,0.755,0.809,30.9 ± 1.46 ×10⁻⁶ cm/s,28.9 ± 1.75 ×10⁻⁶ cm/s,–,–,–,–,"recovery at 2 h, 2 µM ([2]; pH 7.4, Recovery A-B, LLC-PK1 MOCK, 2 µM, 2 h, n = 3): 116 ± 7.41%; recovery at 2 h, 2 µM ([2]; pH 7.4, Recovery B-A, LLC-PK1 MOCK, 2 µM, 2 h, n = 3): 95.2 ± 2.32%; Protein binding in plasma (in vitro [6]; 6 h, 5 µM): 15.0 ± 5.22%"
CN/C(=N/CCSCc1nc[nH]c1C)NC#N [Cimetidine],–,–,0.28 ± 0.07 ×10⁻⁶ cm/s,0.69 ± 0.07 ×10⁻⁶ cm/s,87.4 ± 9.65%,0.008,0.007,0.655,–,33.9 ± 4.3 ×10⁻⁶ cm/s,96.9 ± 13.3%,–,–,–,"Papp A→B at 2 h, 2 µM (P-gp (human MDR1) [5]; LLC-PK1, pH 7.4, Papp A-B, LLC-PK1-MDR1, 2 µM, 2 h, mean ± s, n = 3): 1.32 ± 0.31 ×10⁻⁶ cm/s; fraction unbound at 6 h, 5 µM (in vitro [6]): 0.722"
NC(=O)C[S+]([O-])C(c1ccccc1)c1ccccc1 (centres unmarked) [Modafinil],–,–,15.6 ± 0.22 ×10⁻⁶ cm/s,–,107 ± 3.4%,–,–,–,22.7 ± 0.45 ×10⁻⁶ cm/s,23.9 ± 0.91 ×10⁻⁶ cm/s,–,0.78,106 ± 2.03%,1.05,"Papp A→B at 2 h, 2 µM ([2]; LLC-PK1, pH 7.4): 20.2 ± 0.98 ×10⁻⁶ cm/s; Kp (in vivo; in vivo): 0.71; Kp uu (in vivo; in vivo): 0.547; fraction unbound at 6 h, 5 µM (in vitro [4]): 0.308; Protein binding in plasma [8]: 60^b %"
C=C[C@H]1C[N@@]2CC[C@H]1C[C@@H]2[C@@H](O)c1ccnc2ccc(OC)cc12 [Quinidine],–,–,17.2 ± 2.85 ×10⁻⁶ cm/s,23.4 ± 0.37 ×10⁻⁶ cm/s,98.7 ± 14.8%,–,–,–,2.48 ± 1.06 ×10⁻⁶ cm/s,42.9 ± 2.11 ×10⁻⁶ cm/s,99.1 ± 15.6%,–,–,–,"Kp, Brain ([1]; ref Nicolaï [2020]): 0.32; Kp,uu,Brian ([1]; ref Nicolaï [2020]): 0.036"
CCC1(c2cnc[nH]2)Cc2ccccc2C1 [Atipamezole],–,–,30.2 ± 4.52 ×10⁻⁶ cm/s,33.9 ± 1.72 ×10⁻⁶ cm/s,–,–,–,–,33.7 ± 5.21 ×10⁻⁶ cm/s,27.6 ± 1.5 ×10⁻⁶ cm/s,–,–,–,–,"Kp, Brain ([1]; ref Li [2019]): 4.40; Kp,uu,Brian ([1]; ref Li [2019]): 1.700"
COc1cccc(C2(O)CCCCC2CN(C)C)c1 (centres unmarked) [Tramadol],5.29,1.46,23.3 ± 1.43 ×10⁻⁶ cm/s,–,109 ± 2.73%,–,–,–,26.3 ± 1.05 ×10⁻⁶ cm/s,25.2 ± 1.1 ×10⁻⁶ cm/s,–,0.85,113 ± 3.59%,0.96,"Papp A→B at 2 h, 2 µM ([2]; LLC-PK1, pH 7.4): 27.3 ± 0.2 ×10⁻⁶ cm/s"
CC[C@]1(O)C[C@@H]2CN(CCc3c([nH]c4ccccc34)[C@@](C(=O)OC)(c3cc4c(cc3OC)N(C)[C@H]3[C@@](O)(C(=O)OC)[C@H](OC(C)=O)[C@]5(CC)C=CCN6CC[C@]43[C@@H]65)C2)C1 [Vinblastine],–,–,4.16 ± 0.32 ×10⁻⁶ cm/s,4.33 ± 0.21 ×10⁻⁶ cm/s,103 ± 9.03%,< 0.088,0.528,< 0.01,2.84 ± 0.27 ×10⁻⁶ cm/s,20.4 ± 1.81 ×10⁻⁶ cm/s,86.5 ± 1.69%,0.96,–,7.2,"fraction unbound at 6 h, 5 µM (in vitro [6]): 0.06"
Nc1c2c(nc3ccccc13)CCCC2 [Tacrine],–,–,–,–,105 ± 4.23%,–,–,–,–,–,–,–,114 ± 3.02%,–,"Papp B→A at 2 h, 2 µM (P-gp (human MDR1) [3]; LLC-PK1, pH 7.4): 34.1 ± 2.16 ×10⁻⁶ cm/s; Papp A→B at 2 h, 2 µM (P-gp (human MDR1) [3]; LLC-PK1, pH 7.4, Papp A-B): 23.6 ± 1.1 ×10⁻⁶ cm/s; Papp B→A at 2 h, 2 µM (in vitro [7]; LLC-PK1, pH 7.4): 27.2 ± 2.27 ×10⁻⁶ cm/s; Papp A→B at 2 h, 2 µM (in vitro [7]; LLC-PK1, pH 7.4, Papp A-B): 30.9 ± 1.76 ×10⁻⁶ cm/s; Kp, Brain ([1]; rat, in vivo): 9.56; Kp,uu,Brian ([1]; rat, in vivo): 0.78"
CC(C)NCC(O)COc1cccc2ccccc12 (centres unmarked) [Propranolol],16.37,0.61,20.1 ± 0.71 ×10⁻⁶ cm/s,22.8 ± 2.13 ×10⁻⁶ cm/s,80.7 ± 1.03%,–,–,–,16.8 ± 0.09 ×10⁻⁶ cm/s,16.1 ± 1.46 ×10⁻⁶ cm/s,90.9 ± 7.14%,0.88,–,0.96,–
